## NCC(=O)C[PH](=O)O
  melting point: 126 to 127 °C

— patent US7807658B2, “Use of GabaB receptor agonists” (AstraZeneca AB, priority 1999, dated 2010)
